Test results taken from patent US8338611B2, “Opioid receptor antagonists” (Eli Lilly and Company, priority 2004, dated 2012).
Values joined by “and” are separate entries in the source; they are usually repeats but may differ in a detail not shown here. Equal entries are not always repeated. Where two headings read alike, the source gives them in different places.

Tests used:
Assay type in all cases: biochemical
[1] = molecular target: T1, cloned human mu opioid receptor (Homo sapiens, UniProt P35372); experiment: GTP-γ-S Binding Assay, mu opioid receptor (Table 1: Receptor Binding); conditions: membranes from cells expressing cloned human mu receptor
T1 construct: expressed in transfected cells
T1 sequence (P35372 whole entry): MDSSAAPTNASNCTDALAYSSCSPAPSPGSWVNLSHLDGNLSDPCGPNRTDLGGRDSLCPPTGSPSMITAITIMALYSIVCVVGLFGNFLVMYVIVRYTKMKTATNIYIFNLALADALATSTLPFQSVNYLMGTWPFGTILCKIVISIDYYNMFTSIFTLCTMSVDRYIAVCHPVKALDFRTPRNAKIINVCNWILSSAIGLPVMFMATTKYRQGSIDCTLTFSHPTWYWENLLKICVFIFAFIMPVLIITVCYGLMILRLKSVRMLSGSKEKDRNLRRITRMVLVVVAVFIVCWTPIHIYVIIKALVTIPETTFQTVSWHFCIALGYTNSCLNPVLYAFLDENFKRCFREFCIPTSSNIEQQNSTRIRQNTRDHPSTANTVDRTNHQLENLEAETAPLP

[2] = molecular target: T2, cloned human kappa opioid receptor (Homo sapiens, UniProt P41145); experiment: GTP-γ-S Binding Assay, kappa opioid receptor (Table 1: Receptor Binding); conditions: membranes from cells expressing cloned human kappa receptor
T2 construct: expressed in transfected cells
T2 sequence (P41145 whole entry): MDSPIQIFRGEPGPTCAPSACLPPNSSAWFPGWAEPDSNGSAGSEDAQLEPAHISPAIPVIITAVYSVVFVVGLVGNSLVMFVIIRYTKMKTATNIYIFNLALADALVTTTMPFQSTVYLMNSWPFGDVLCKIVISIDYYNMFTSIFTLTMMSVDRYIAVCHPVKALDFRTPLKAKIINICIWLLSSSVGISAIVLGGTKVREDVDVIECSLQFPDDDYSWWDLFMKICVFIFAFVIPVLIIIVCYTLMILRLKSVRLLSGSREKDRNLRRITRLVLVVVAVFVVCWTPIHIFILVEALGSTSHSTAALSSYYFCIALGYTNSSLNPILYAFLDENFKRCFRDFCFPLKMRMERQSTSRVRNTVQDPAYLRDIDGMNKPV

[3] = molecular target: T3, cloned human delta opioid receptor (Homo sapiens, UniProt P41143); experiment: GTP-γ-S Binding Assay, delta opioid receptor (Table 1: Receptor Binding); conditions: membranes from cells expressing cloned human delta receptor
T3 construct: expressed in transfected cells
T3 sequence (P41143 whole entry): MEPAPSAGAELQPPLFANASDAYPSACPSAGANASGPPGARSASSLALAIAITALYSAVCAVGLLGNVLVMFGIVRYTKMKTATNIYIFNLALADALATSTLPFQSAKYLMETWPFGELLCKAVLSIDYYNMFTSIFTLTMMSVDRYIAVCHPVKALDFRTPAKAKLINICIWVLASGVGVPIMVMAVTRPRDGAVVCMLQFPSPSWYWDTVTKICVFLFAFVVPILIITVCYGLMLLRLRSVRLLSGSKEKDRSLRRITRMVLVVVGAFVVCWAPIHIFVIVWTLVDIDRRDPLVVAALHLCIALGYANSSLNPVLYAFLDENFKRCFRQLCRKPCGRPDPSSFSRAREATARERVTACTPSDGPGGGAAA
Description: The functional antagonist potency (Kb) of the sample compounds was determined using the GTPγS binding assay. GTPgS-based functional assays provide an in vitro measure of the activity of opioid agonists and antagonists. Opioid reference compounds or test compound are incubated with membrane homogenate from cells expressing the cloned human mu, kappa or delta opioid receptor and radiolabeled [35S]GTPgS. If the compound activates the opioid receptor, an increase in the binding of radiolabeled GTPgS is observed. […] These tests provide an in vitro measurement of the activity of the compound at human opioid receptors. GTP-γ-S Binding Assay
An SPA-based GTP-γ-S assay format was developed based on previous opioid (Emmerson et al., J. Pharm Exp Ther 278, 1121, 1996; Horng et al., Society for Neuroscience Abstracts, 434.6, 2000) and muscarinic (DeLapp et al., JPET 289, 946, 1999) assay formats. Membranes were resuspended in 20 mM HEPES, 100 mM NaCl, 5 mM MgCl2, 1 mM DTT, and 1 mM EDTA. Fifty (50) […], of GTP-γ-[35S], compound; membrane suspension (20 microgram/well), and wheat germ agglutinin coated SPA beads (1 mg/well) were added to clear bottom 96 well assay plates. GDP ([…]) was added to the membrane solution prior to addition to the assay plates. Plates were sealed and incubated for four hours at room temperature then placed in a refrigerator overnight to allow the beads to settle. Signal stability at 4° C. was determined to be >6O hours. Plates were warmed to room temperature and counted in a Wallac Microbeta scintillation counter. For antagonist assays, specific agonists were added at the following concentrations: (MOR) DAMGO 1 micromolar, (DOR) DPDPE 30 nM, (KOR) U69593 300 nM. Kb's were determined by Cheng-Prusoff equation (see Cheng and Prusoff, Biochem. Pharmacol. 22, 3099, 1973).

[4] = read-out: Receptor Binding (Ki, nM) Mu

Row | Compound | Ki [1, 4] | Ki [2] [nM] | Ki [3] [nM] | Ki ([1]; Receptor Binding (Ki, nM) Mu) [nM]
1 | 6-{4-[(2-Pyridin-4-yl-ethylamino)-methyl]-phenylsulfanyl}-nicotinamide [Example 19] | 107 nM | 137 | 858 | –
2 | CC(=O)c1ccc(Oc2ccc(CCNCc3ccccc3)cc2)cc1 [Example 5, 1-{4-[4-(2-Benzylamino-ethyl)-phenoxy]-phenyl}-ethanone] | 1310 nM | > 5000 | > 5000 | –
3 | CC(=O)Oc1ccc(Oc2ccc(CCNCc3ccccc3)cc2)cc1 [Example 6, Acetic acid 4-[4-(2-benzylamino-ethyl)-phenoxy]phenyl ester] | 229 nM | 1620 | 3250 | –
4 | NC(=O)c1ccc(Sc2ccc(CNCC3CC3)cc2)nc1 [Example 10, 6-{4-[(Cyclopropylmethyl-amino)-methyl]-phenylsulfanyl}-nicotinamide] | 726 nM | > 5000 | 3040 | –
5 | CC(C)CCNCc1ccc(Sc2ccc(C(N)=O)cn2)cc1 [Example 13, 6-{4-[(3-Methyl-butylamino)-methyl]-phenylsulfanyl}-nicotinamide] | 563 nM | 2440 | 3520 | –
6 | NC(=O)c1ccc(S(=O)(=O)c2ccc(CNCCc3ccccc3)cc2)cc1 [Example 14, 4-[4-(Phenethylamino-methyl)-benzenesulfonyl]-benzamide] | 86.4 nM | 1020 | 714 | –
7 | NC(=O)c1ccc([S+]([O-])c2ccc(CNCCc3ccccc3)cc2)cc1 (stereo not shown) [Example 15, 4-[4-(Phenethylamino-methyl)-benzenesulfinyl]-benzamide] | 292 nM | 654 | 1820 | –
8 | NCCc1ccc(Nc2ccc(C(N)=O)cn2)cc1 [Example 16, 6-[4-(2-Amino-ethyl)-phenylamino]-nicotinamide] | – | 1020 | 270 | 45.4
9 | NC(=O)c1ccc(Nc2ccc(CCNCc3ccccc3)cc2)nc1 [Example 17, 6-[4-(2-Benzylamino-ethyl)-phenylamino]-nicotinamide] | 1350 nM | 761 | > 5000 | –
10 | NC(=O)c1ccc(Nc2ccc(CCNCC3CCCCC3)cc2)nc1 [Example 18, 6-{4-[2-(Cyclohexylmethyl-amino)-ethyl]-phenylamino}-nicotinamide] | 48.7 nM | 466 | 278 | –
11 | NC(=O)c1ccc(Nc2ccc(CNCc3ccccc3)cc2)nc1 [Example 20, 6-[4-(Benzylamino-methyl)-phenylamino]-nicotinamide] | 73.2 nM | 402 | 537 | –
12 | NC(=O)c1ccc(Nc2ccc(CNCC3CCCCC3)cc2)nc1 [Example 21, 6-{4-[(Cyclohexylmethyl-amino)-methyl]-phenylamino}-nicotinamide] | > 3000 nM | > 4000 | > 5000 | –
13 | NC(=O)c1ccc(Nc2ccc(CNCCc3ccccc3)cc2)nc1 [Example 22, 6-[4-(Phenethylamino-methyl)-phenylamino]-nicotinamide] | > 3000 nM | > 4000 | > 5000 | –
14 | CC(=O)Nc1ccc(Oc2ccc(CCNC(=O)OC(C)(C)C)cc2)cc1 [Example 24, {2-[4-(4-Acetylamino-phenoxy)-phenyl]-ethyl}-carbamic acid tert-butyl ester] | 198 nM | 2670 | 4020 | –
15 | CC(=O)Nc1ccc(Oc2ccc(CCN)cc2)cc1 [Example 25, N-{4-[4-(2-Amino-ethyl)-phenoxy]-phenyl}-acetamide] | – | 3970 | 2510 | 67.5
16 | CCCCCCNCCc1ccc(Oc2ccc(NC(C)=O)cc2)cc1 [Example 27, N-{4-[4-(2-Hexylamino-ethyl)-phenoxy]-phenyl}-acetamide] | 200 nM and 64.3 nM | – | – | –
17 | CC(=O)Nc1ccc(Oc2ccc(CCNCc3cccs3)cc2)cc1 [Example 28, N-[4-(4-{2-[(Thiophen-2-ylmethyl)-amino]-ethyl}-phenoxy)-phenyl]-acetamide] | 26.9 nM | 150 | 469 | –
18 | CC(=O)Nc1ccc(Oc2ccc(CCNCCCc3ccccc3)cc2)cc1 [Example 29, N-(4-{4-[2-(3-Phenyl-propylamino)-ethyl]-phenoxy}-phenyl)-acetamide] | 5.06 nM | 731 | 62.5 | –
19 | CC(=O)Nc1ccc(Oc2ccc(CCNCCC3CCCCC3)cc2)cc1 [Example 30, N-(4-{4-[2-(2-Cyclohexyl-ethylamino)-ethyl]-phenoxy}-phenyl)-acetamide] | 18 nM | 163 | 260 | –
20 | CC(=O)Nc1ccc(Oc2ccc(CCNCc3ccco3)cc2)cc1 [Example 36, N-[4-(4-{2-[(Furan-2-ylmethyl)-amino]-ethyl}-phenoxy)-phenyl]-acetamide] | > 2500 nM | > 4000 | > 5000 | –
21 | CC(=O)Nc1ccc(Oc2ccc(CCNCc3cccc(Cl)c3)cc2)cc1 [Example 37, N-(4-{4-[2-(3-Chloro-benzylamino)-ethyl]-phenoxy}-phenyl)-acetamide] | 1750 nM | > 4000 | > 5000 | –
22 | CC(=O)Nc1ccc(Oc2ccc(CCNCC(C)C)cc2)cc1 [Example 38, N-{4-[4-(2-Isobutylamino-ethyl)-phenoxy]-phenyl}-acetamide] | 1720 nM | > 4000 | > 5000 | –
23 | CC(=O)Nc1ccc(Oc2ccc(CCNC3CCCCC3)cc2)cc1 [Example 39, N-{4-[4-(2-Cyclohexylamino-ethyl)-phenoxy]-phenyl}-acetamide] | > 2500 nM | > 4000 | > 5000 | –
24 | CC(=O)Nc1ccc(Oc2ccc(CCNCc3ccccc3C)cc2)cc1 [Example 40, N-(4-{4-[2-(2-Methyl-benzylamino)-ethyl]-phenoxy}-phenyl)-acetamide] | 912 nM | > 4000 | > 5000 | –
